Each structure is given as a SMILES string. Structures can show the parent of a compound that is named as a salt.

For this assay, the target named is T1, purified human HDAC6 (Homo sapiens, UniProt Q9UBN7).
T1 construct: purchased BPS Bioscience 5006
T1 sequence (Q9UBN7 1-1215): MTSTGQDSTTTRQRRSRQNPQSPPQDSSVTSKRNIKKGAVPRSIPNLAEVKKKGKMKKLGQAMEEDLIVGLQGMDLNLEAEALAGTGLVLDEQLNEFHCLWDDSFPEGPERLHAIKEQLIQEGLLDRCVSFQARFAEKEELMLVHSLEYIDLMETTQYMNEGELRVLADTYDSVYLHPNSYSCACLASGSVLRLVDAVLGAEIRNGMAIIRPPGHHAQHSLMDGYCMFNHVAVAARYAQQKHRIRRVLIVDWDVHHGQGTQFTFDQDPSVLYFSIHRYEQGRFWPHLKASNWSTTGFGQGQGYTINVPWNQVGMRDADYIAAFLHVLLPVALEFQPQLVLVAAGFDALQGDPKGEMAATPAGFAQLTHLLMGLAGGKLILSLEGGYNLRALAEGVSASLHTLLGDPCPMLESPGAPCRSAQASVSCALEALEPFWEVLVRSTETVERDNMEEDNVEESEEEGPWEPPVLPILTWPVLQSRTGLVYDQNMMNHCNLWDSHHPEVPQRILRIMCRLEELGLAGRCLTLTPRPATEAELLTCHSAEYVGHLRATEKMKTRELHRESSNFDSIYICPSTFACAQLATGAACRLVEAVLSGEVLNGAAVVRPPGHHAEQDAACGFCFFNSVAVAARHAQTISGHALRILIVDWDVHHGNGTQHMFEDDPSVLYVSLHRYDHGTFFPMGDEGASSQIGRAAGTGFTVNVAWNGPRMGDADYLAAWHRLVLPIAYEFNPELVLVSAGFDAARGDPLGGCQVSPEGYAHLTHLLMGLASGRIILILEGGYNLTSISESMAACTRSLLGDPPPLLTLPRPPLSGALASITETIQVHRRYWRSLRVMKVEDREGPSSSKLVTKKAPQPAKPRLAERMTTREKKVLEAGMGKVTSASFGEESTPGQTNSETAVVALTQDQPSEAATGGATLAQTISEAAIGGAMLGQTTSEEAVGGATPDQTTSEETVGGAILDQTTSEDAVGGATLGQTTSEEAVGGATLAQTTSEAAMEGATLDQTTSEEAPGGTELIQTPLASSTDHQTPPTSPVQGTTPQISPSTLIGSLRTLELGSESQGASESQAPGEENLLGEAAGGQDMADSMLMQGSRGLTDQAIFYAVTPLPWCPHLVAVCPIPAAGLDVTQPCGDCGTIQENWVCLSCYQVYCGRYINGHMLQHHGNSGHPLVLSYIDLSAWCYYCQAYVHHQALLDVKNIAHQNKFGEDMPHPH
The experiment in a line: HDAC6 Enzyme Assay. The conditions noted are these: HDAC6 inhibition at a compound concentration of 0.412 μM; read-out: Percent Inhibition at 0.412 μM. Format: biochemical.

In the case of `CC(C)(C)C(=O)Nc1cc(OC2CCc3cc(C(=O)NO)ccc3C2)ccn1` (centres unmarked) [Compound I-150, 6-({2-[(2,2-dimethylpropanoyl)amino]pyridin-4-yl}oxy)-N-hydroxy-5,6,7,8-tetrahydronaphthalene-2-carboxamide], the inhibition – broadly, the drop in the measured response relative to a control, in per cent – at 0.412 µM amounted to 86%.

On to `CC1(C(=O)NC2CCc3cc(C(=O)NO)ccc3C2)CCNCC1` (centres unmarked) [Compound I-170, N-{6-[(hydroxyamino)carbonyl]-1,2,3,4-tetrahydronaphthalen-2-yl}-4-methylpiperidine-4-carboxamide], for which the inhibition at 0.412 µM was determined as 73%. Regarding `CN(C)Cc1cc(C(=O)NC2CCc3cc(C(=O)NO)ccc3C2)cc(C(F)(F)F)c1` (centres unmarked) [Compound I-171, 6-{[3-[(dimethylamino)methyl]-5-(trifluoromethyl)benzoyl]amino}-N-hydroxy-5,6,7,8-tetrahydronaphthalene-2-carboxamide], the inhibition at 0.412 µM came to 77%.

Take `CN(C)Cc1cccc(C2CCc3cc(C(=O)NO)ccc3C2)c1` (centres unmarked) [Compound I-183, 6-{3-[(dimethylamino)methyl]phenyl}-N-hydroxy-5,6,7,8-tetrahydronaphthalene-2-carboxamide]: the inhibition at 0.412 µM stood at 69%. As for `O=C(NO)c1ccc2c(c1)CC(c1ccccc1C(F)(F)F)CC2` (centres unmarked) [Compound I-185, N-hydroxy-7-[2-(trifluoromethyl)phenyl]-5,6,7,8-tetrahydronaphthalene-2-carboxamide], the figure is 85%; as for `O=C(NO)c1ccc2c(c1)CC(c1ccc(N3CCNCC3)nc1)CC2` (centres unmarked) [Compound I-190, N-hydroxy-7-(6-piperazin-1-ylpyridin-3-yl)-5,6,7,8-tetrahydronaphthalene-2-carboxamide], 90%; as for `CN(C)CCOc1cccc(C2CCc3ccc(C(=O)NO)cc3C2)c1` (centres unmarked) [Compound I-194, 7-{3-[2-(dimethylamino)ethoxy]phenyl}-N-hydroxy-5,6,7,8-tetrahydronaphthalene-2-carboxamide], 86%. As for `CC1(C(=O)N2C3CCC2c2cc(C(=O)NO)ccc23)CCCCC1` (centres unmarked) [Compound I-196, N-hydroxy-9-[(1-methylcyclohexyl)carbonyl]-1,2,3,4-tetrahydro-1,4-epiminonaphthalene-6-carboxamide], the figure is 32%; as for `O=C(NO)c1ccc2c(c1)C1CCC2N1C(=O)c1ccc(Cl)cc1` (centres unmarked) [Compound I-197, 9-(4-chlorobenzoyl)-N-hydroxy-1,2,3,4-tetrahydro-1,4-epiminonaphthalene-6-carboxamide], 55%. As for `COc1ccc(C(=O)N2C3CCC2c2cc(C(=O)NO)ccc23)cc1` (centres unmarked) [Compound I-198, N-hydroxy-9-(4-methoxybenzoyl)-1,2,3,4-tetrahydro-1,4-epiminonaphthalene-6-carboxamide], the figure is 60%; as for `O=C(NO)c1ccc2c(c1)C1CCC2N1C(=O)c1ccc(-c2ccccc2)cc1` (centres unmarked) [Compound I-199, 9-(biphenyl-4-ylcarbonyl)-N-hydroxy-1,2,3,4-tetrahydro-1,4-epiminonaphthalene-6-carboxamide], 70%; as for `CC(C)(C)c1ccc(C(=O)N2C3CCC2c2cc(C(=O)NO)ccc23)cc1` (centres unmarked) [Compound I-200, 9-(4-tert-butylbenzoyl)-N-hydroxy-1,2,3,4-tetrahydro-1,4-epiminonaphthalene-6-carboxamide], 67%. Consider `CC(C)(C)C(=O)N1C2CCC1c1cc(C(=O)NO)ccc12` (centres unmarked) [Compound I-201, 9-(2,2-dimethylpropanoyl)-N-hydroxy-1,2,3,4-tetrahydro-1,4-epiminonaphthalene-6-carboxamide], for which the inhibition at 0.412 µM turned out to be 29%. Turning to `O=C(NO)c1ccc2c(c1)C1CCC2N1C(=O)c1cc2ccccc2o1` (centres unmarked) [Compound I-202, 9-(1-benzofuran-2-ylcarbonyl)-N-hydroxy-1,2,3,4-tetrahydro-1,4-epiminonaphthalene-6-carboxamide], the inhibition at 0.412 µM is 19%. As for `O=C(NO)c1ccc2c(c1)C1CCC2N1C(=O)c1sc2ccccc2c1Cl` (centres unmarked) [Compound I-203, 9-[(3-chloro-1-benzothien-2-yl)carbonyl]-N-hydroxy-1,2,3,4-tetrahydro-1,4-epiminonaphthalene-6-carboxamide], the figure is 53%; as for `O=C(NO)c1ccc2c(c1)C1CCC2N1C(=O)c1cc2ccccc2s1` (centres unmarked) [Compound I-204, 9-(1-benzothien-2-ylcarbonyl)-N-hydroxy-1,2,3,4-tetrahydro-1,4-epiminonaphthalene-6-carboxamide], 23%.

In the case of `O=C(NO)c1ccc2c(c1)C1CCC2N1C(=O)C12CC3CC(CC(C3)C1)C2` (centres unmarked) [Compound I-205, 9-(1-adamantylcarbonyl)-N-hydroxy-1,2,3,4-tetrahydro-1,4-epiminonaphthalene-6-carboxamide], the inhibition at 0.412 µM came out at 17%. As for `Cc1nc(-c2ccccn2)sc1C(=O)N1C2CCC1c1cc(C(=O)NO)ccc12` (centres unmarked) [Compound I-206], the figure is 18%. As for `CCCC(=O)N1C2CCC1c1cc(C(=O)NO)ccc12` (centres unmarked) [Compound I-207, 9-butyryl-N-hydroxy-1,2,3,4-tetrahydro-1,4-epiminonaphthalene-6-carboxamide], the figure is 25%; as for `Cc1nc(C(=O)N2C3CCC2c2cc(C(=O)NO)ccc23)cs1` (centres unmarked) [Compound I-208, N-hydroxy-9-[(2-methyl-1,3-thiazol-4-yl)carbonyl]-1,2,3,4-tetrahydro-1,4-epiminonaphthalene-6-carboxamide], 34%; as for `O=C(NO)c1ccc2c(c1)C1CCC2N1C(=O)c1ccccn1` (centres unmarked) [Compound I-210, N-hydroxy-9-(pyridin-2-ylcarbonyl)-1,2,3,4-tetrahydro-1,4-epiminonaphthalene-6-carboxamide], 28%. Turning to `O=C(NO)c1ccc2c(c1)C1CCC2N1C(=O)Cc1ccccc1` (centres unmarked) [Compound I-211, N-hydroxy-9-(phenylacetyl)-1,2,3,4-tetrahydro-1,4-epiminonaphthalene-6-carboxamide], the inhibition at 0.412 µM worked out at 51%. As for `O=C(NO)c1ccc2c(c1)CC(C1CCNCC1)CC2` (centres unmarked) [Compound I-212, N-hydroxy-7-piperidin-4-yl-5,6,7,8-tetrahydronaphthalene-2-carboxamide. HCl], the inhibition at 0.412 µM came to 72%.

As for `CC(C)(C)OC(=O)N1CCC(C)(C(=O)Nc2cc(OC3CCc4cc(C(=O)NO)ccc4C3)ccn2)CC1` (centres unmarked) [Compound I-214, tert-Butyl 4-({[4-({6-[(hydroxyamino)carbonyl]-1,2,3,4-tetrahydronaphthalen-2-yl}oxy)pyridin-2-yl]amino}carbonyl)-4-methylpiperidine-1-carboxylate], the inhibition at 0.412 µM was 88%. As for `CC(C)N1CCC(C)(C(=O)Nc2cc(OC3CCc4cc(C(=O)NO)ccc4C3)ccn2)CC1` (centres unmarked) [Compound I-219, N-[4-({6-[(hydroxyamino)carbonyl]-1,2,3,4-tetrahydronaphthalen-2-yl}oxy)pyridin-2-yl]-1-isopropyl-4-methylpiperidine-4-carboxamide], the figure is 90%; as for `O=C(NO)c1ccc2c(c1)CCC(Oc1ccnc(C(=O)NC3CCNCC3)c1)C2` (centres unmarked) [Compound I-220, 4-({6-[(hydroxyamino)carbonyl]-1,2,3,4-tetrahydronaphthalen-2-yl}oxy)-N-piperidin-4-ylpyridine-2-carboxamide], 92%; as for `CC(C)(C)OC(=O)N1CCC(C2CCc3ccc(C(=O)NO)cc3C2)CC1` (centres unmarked) [Compound I-221, tert-butyl 4-{7-[(hydroxyamino)carbonyl]-1,2,3,4-tetrahydronaphthalen-2-yl}piperidine-1-carboxylate], 41%. The value for `CCN1CCC(C)(C(=O)Nc2cc(OC3CCc4cc(C(=O)NO)ccc4C3)ccn2)CC1` (centres unmarked) [Compound I-222, 1-ethyl-N-[4-({6-[(hydroxyamino)carbonyl]-1,2,3,4-tetrahydronaphthalen-2-yl}oxy)pyridin-2-yl]-4-methylpiperidine-4-carboxamide] was 91%. The value for `CC(C)(C)OC(=O)N1CCC(NC(=O)c2cc(OC3CCc4cc(C(=O)NO)ccc4C3)ccn2)CC1` (centres unmarked) [Compound I-223, tert-butyl 4-({[4-({6-[(hydroxyamino)carbonyl]-1,2,3,4-tetrahydronaphthalen-2-yl}oxy)pyridin-2-yl]carbonyl}amino)piperidine-1-carboxylate] was 88%.
